{
  "source": "patent US20070265223A1",
  "about": "“COMPOSITIONS AND METHODS OF ENHANCING SURVIVABILITY AND REDUCING INJURY OF CELLS, TISSUES, ORGANS, AND ORGANISMS UNDER HYPOXIC OR ISCHEMIC CONDITIONS” (IKARIA, INC., priority 2006, published 2007)",
  "key": {"[1]": {"test_system": "mice subjected to lethal hypoxia", "assay": "Protection of mice from lethal hypoxia using 5′-AMP", "assay_type": "in vivo, mouse (C57BI/6)", "conditions": "for survival of exposure to hypoxia: 4% oxygen for 60 min; for time to full recovery from lowest temperature: after return to ambient air", "procedure": "The ability of 5′-AMP to protect mice from lethal hypoxia was determined by comparing the effects of hypoxia on mice treated with 5′-AMP to the effects of hypoxia on untreated mice. Male C57BI/6 mice, 5-6 weeks old, with implanted jugular vein catheter (Taconic) were implanted dorsally with a subcutaneous RFID temperature sensor (IPTT-300, Bio Medic Data Systems, Inc.) and allowed to recover for at least 24 hours. Adenosine-5′-monophosphate (AMP sodium salt, Sigma) was dissolved in water, the osmolarity was adjusted with sodium chloride to 300 mOsm, the pH was adjusted with NaOH to 6.3, and the solution was filtered through a 0.2 um filter. The final AMP concentration was 40 mM. Mice were placed into a tall glass-bottom jar with opaque walls and infused via the jugular vein at a rate of 0.8 ul/min for 59.5 min followed by 1.6 ul/min for 12.8 min (total AMP dose=145 umol/kg) with a syringe pump (Harvard Apparatus), until their subcutaneous temperature had decreased to about 33° C. The infusion was stopped, and the mice were exposed for 60 min to an atmosphere of 4% oxygen constructed by mixing air and nitrogen using mass flow controllers (Sierra Instruments). During the infusion and exposure to hypoxia, the animals' subcutaneous temperature was read every 3-5 min and their vital signs were monitored. At the end if the hypoxic period, the animals were removed to ambient air. Temperature measurements were continued until the animals' temperature had returned to the normal range (FIGS. 1A and 1B). A control mouse was exposed to hypoxia, and its time of death was recorded.\nThe same procedure described above was repeated under conditions wherein the mouse treated with 5′AMP received a constant infusion of 40 mM AMP at 1.6 ul/min for 26.5 min (total AMP dose of 69 umol/kg) until its subcutaneous temperature had reached 33 C. In this case, the AMP-infused mouse (MJVC83) survived exposure to hypoxia for 60 min and recovered fully from the lowest temperature of 24° C. within 1 hour. The control mouse (MJVC84) died after 8.5 min of hypoxia with a final temperature of 32.7° C. (FIGS. 2A and 2B)."}, "[2]": {"test_system": "rats subjected to lethal hypoxia", "assay": "Protection of rats from lethal hypoxia using 5′-AMP", "assay_type": "in vivo, rat (Sprague Dawley)", "conditions": "rat RJVC35; 40 mM 5′AMP bolus 258 ul then 31.7 ul/min for 66.4 min, total 270 uM/kg; saline control 8.6 min"}, "[3]": {"conditions": "treatment of animals; Zhang et al., Nature 2006; cited from earlier work"}, "[4]": {"test_system": "mice subjected to lethal hypoxia", "assay": "Protection of mice from lethal hypoxia using adenosine", "assay_type": "in vivo, mouse (C57BI/6)", "conditions": "two mice", "procedure": "The ability of adenosine to protect mice from lethal hypoxia was determined by comparing the effects of hypoxia on mice treated with adenosine to the effects of hypoxia on untreated mice. Male C57BI/6 mice, 5-8 weeks old, with implanted jugular vein catheter (Taconic) were implanted dorsally with a subcutaneous RFID temperature sensor (PTT-300, Bio Medic Data Systems, Inc.) and allowed to recover for at least 24 hours after implantation. Mice were injected with adenosine (19 mM, 3.2 μl/min total dose approximately 27 mg/kg) and temperature was monitored via the temperature sensor until subcutaneous body temperature had decreased to about 33° C. The infusion was stopped, and these mice, as well as control mice injected with sodium chloride) were exposed for 60 min to an atmosphere of 4% oxygen constructed by mixing air and nitrogen using mass flow controllers (Sierra Instruments). During the infusion and exposure to hypoxia, the animals' subcutaneous temperature was monitored every 3-5 min and their vital signs were monitored. In parallel, a control mouse was injected with vehicle (sodium chloride; NaCI; 137 mM, 3.2 μl/min, total dose of NaCl administered was approximately 41 mg/kg) and put into a hypoxic atmosphere (4% O2) at the same time as the mouse injected with adenosine, and its behavior and body temperature monitored. Following 60 min in hypoxic conditions, the mice (MJVC104 and MJVC 108) treated with adenosine were transferred into room air, and recovery of the mice was recorded by observing behavior and monitoring body temperature. […] The control mice (MJVC105 and MJVC107) died after approximately six minutes in the hypoxic atmosphere (4% O2; FIGS. 4B and 5B)."}, "[5]": {"conditions": "cited from earlier work"}, "[6]": {"conditions": "adenosine approximately 27 mg/kg, after 60 min 4% O2"}},
  "note": "Like-named read-outs stand apart in the source and are kept apart here.",
  "data": [
    {"smiles": "Nc1ncnc2c1ncn2[C@@H]1O[C@H](COP(=O)(O)O)[C@@H](O)[C@H]1O", "note": "[5′-AMP, Adenosine-5′-monophosphate]", "values": [
      {"measurement": "survival of exposure to hypoxia", "setting": "[1]; mouse MJVC80, 40 mM AMP jugular vein infusion 0.8 ul/min 59.5 min then 1.6 ul/min 12.8 min, total 145 umol/kg", "result": "survived"},
      {"measurement": "time to full recovery from lowest temperature", "setting": "[1]; mouse MJVC80, total AMP dose 145 umol/kg", "result": "≤ 1", "unit": "h"},
      {"measurement": "survival of exposure to hypoxia", "setting": "[1]; mouse MJVC83, constant infusion 40 mM AMP 1.6 ul/min 26.5 min, total 69 umol/kg", "result": "survived"},
      {"measurement": "time to full recovery from lowest temperature", "setting": "[1]; mouse MJVC83, total AMP dose 69 umol/kg", "result": "≤ 1", "unit": "h"},
      {"measurement": "time of survival in 3.5% oxygen", "setting": "[2]", "result": 38.2, "unit": "min"},
      {"measurement": "induction of torpor (depressed body temperature, mClps expression)", "setting": "[3]", "result": "induced torpor"}
    ]},
    {"smiles": "Nc1ncnc2c1ncn2[C@@H]1O[C@H](CO)[C@@H](O)[C@H]1O", "note": "[adenosine]", "values": [
      {"measurement": "survival of hypoxic atmosphere", "setting": "[4]; adenosine 19 mM, 3.2 μl/min, total approximately 27 mg/kg, 4% O2 for 60 minutes", "result": "survived"},
      {"measurement": "behavioral abnormalities the following day", "setting": "[4]; [6]", "result": "No behavioral abnormalities"},
      {"measurement": "recovery after return to room air", "setting": "[4]; [6]", "result": "recovered completely"}
    ]},
    {"smiles": "[C-]#[O+]", "note": "[carbon monoxide]", "values": [
      {"measurement": "symptoms on exposure", "setting": "[5]; 50 ppm", "result": "no symptoms"},
      {"measurement": "symptoms on exposure", "setting": "[5]; 200 ppm, within two-three hours", "result": "slight headache"},
      {"measurement": "symptoms on exposure", "setting": "[5]; 400 ppm, within one to two hours", "result": "frontal headache"},
      {"measurement": "symptoms on exposure", "setting": "[5]; 800 ppm, within 45 minutes", "result": "dizziness, nausea, and/or convulsions"},
      {"measurement": "lethality on exposure", "setting": "[5]; around 1000 ppm, exposure for more than around 1-2 minutes, an organism", "result": "expire"}
    ]}
  ]
}
